Data set [1] has as its system p-CHK1 (ATR-CHK1 pathway). Description: CHK1 phosphorylation (immunoblot / immunostaining) after UV or HU. Particulars: inhibitor added after UV irradiation, fixed after 2 hours, anti-p-CHK1 immunostaining. It is filed as cell-based, human. From the text: FIG. 1D is a quantification of the percentage of p-CHK1-positive cells from UV-treated data of FIG. 1C. […] In each experiment, >100 cells were randomly chosen to determine the percentage of p-CHK1-positive cells.
The two DNA damage response kinases ATR and ATM play key roles in the protection of genomic integrity from genotoxic stress by sensing a single-strand break and DSB (Double strand break), respectively. To identify the functions of TTP in the DNA damage response, we first analyzed the phosphorylation levels of CHK1 (p-CHK1) and CHK2 (p-CHK2) as readouts of ATR and ATM activity, respectively.
Then, we treated cells with HU, another CHK1 phosphorylation-triggering agent which depletes the deoxynucleoside triphosphate pool, thus inducing the RSR (Replication Stress Response).

Data set [2] relates to A549 (human lung carcinoma) cells. Description: DNA fiber analysis of replication forks. It is filed as cell-based. Particulars: unperturbed A549 cells; IdU and CldU 20 min each; control 0.36 μm/min. The method, then: The ratios of CldU to IdU were calculated from active replication forks. […] Single-strand DNA (ssDNA; blue) was labelled with ssDNA-specific antibodies. Percentages of stalled forks were calculated by dividing the number of red-only tracts (stalled forks) by the total number of red-only plus red-green tracts (stalled and restarted forks, respectively). Analyses were performed on a minimum of 200 individual DNA fibers. […] The recovery of S phase progression is presented as a percentage of EdU positive cells at 6 h after the release from HU treatment. In each experiment, >100 cells were randomly chosen to determine the percentage of EdU-positive cells. […] The ratio of CldU to IdU in terms of length was calculated from active replication forks (red-green). […]
(1) ATR-CHK1 pathway accounts for the central replication stress responses and once activated it helps the cell to survive and faithfully complete DNA replication under stress. Having shown that TTP is found to be implicated in the ATR-CHK1 activation, as in Example 1 above, we decided to examine the effect of TTP on the replication fork stability using DNA fiber analysis, the clearest read-out of replication stress which relies on the incorporation of nucleotide analogues. […]
(3) We next examined the involvement of TTP in stalled fork protection. […] We then analyzed the relative shortening of CldU fiber as indicative of fork degradation. […]

These results are taken from US20230080252A1, “ANTICANCER ADJUVANT AND PHARMACEUTICAL COMPOSITION FOR TREATING ANTICANCER-AGENT-RESISTANT CANCER, AND KIT COMPRISING SAME” (DONG-A UNIVERSITY RESEARCH FOUNDATION FOR INDUSTRY-ACADEMY …, priority 2020, published 2023).

For the molecule `CNCc1ccc(-c2cc(-c3nc(-c4ccc(S(=O)(=O)C(C)C)cc4)cnc3N)on2)cc1` [VE-822], the “residual p-CHK1 signal in TTP-deficient cells” value in data set [1] is on record as “vanished”.
In data set [2], “siClaspin: siRNA (SEQ ID NO: 20) introduced into cells to make Claspin-deficient cells (AACCUUGCUUAGAGCUGAGUCUUCA; listed as RNA, chemistry not given here)” showed an average fork velocity of 0.22 μm/min.
